According to US4294849A, “Prostaglandin analogues” (Warner-Lambert Company, priority 1979, dated 1981):

Tests used:
mice = details: mouse, in vivo; for Diarrhoea-inducing Activity Mice (p.o.), relative to PGE1 taken as 1 / diarrhoea-inducing activity compared with PGE1: po
dogs = assay: hypotensive activity, intravenous administration to allobarbital-anaesthetised dogs; assay type: in vivo, dog; details: for Hypotensive Activity Dog (i.v.), relative to PGE1 taken as 1: relative to PGE1 = 1; for useful activities (hypotensive, blood platelet aggregation inhibitory, vasodilator): in words, summary of the Table; for hypotensive activity, times as potent as PGE1: intravenous, allobarbital-anaesthetised dogs, vs PGE1
[1] = test system: blood platelet aggregation; assay: inhibitory activity on adenosine diphosphate-induced blood platelet aggregation in platelet-rich plasma of rats; assay type: cell-based, rat; details: for Inhibitory Activity on Blood Platelet Aggregation Rat, relative to PGE1 taken as 1: relative to PGE1 = 1; for inhibitory activity on adenosine diphosphate-induced blood platelet aggregation, times as potent as PGE1: rat platelet-rich plasma, vs PGE1
isolated rabbit hearts = assay: coronary vasodilator activity on isolated rabbit hearts; details: for Vasodilator Activity Rabbit, relative to PGE1 taken as 1: relative to PGE1 = 1; for coronary vasodilator activity, times as potent as PGE1: isolated rabbit hearts, vs PGE1
[2] = test system: spontaneously hypertensive rats; assay: hypotensive activity, oral administration to conscious spontaneously hypertensive rats; assay type: in vivo, rat; details: for Hypotensive Activity Rat (p.o.), relative to PGE1 taken as 1: relative to PGE1 = 1; for hypotensive activity, times as potent as PGE1: oral, conscious spontaneously hypertensive rats, vs PGE1
Excerpt: In the Table, all the activities are indicated relative to the activity of PGE1, taken as 1.

[3] = acute toxicity tests, intravenous or oral administration to mice; details: mouse, in vivo
Procedure: Acute toxicity tests on the compounds of the present invention were conducted by administering them intravenously or orally to mice.

[4] = test system: blood platelet aggregation; assay: inhibitory activity on adenosine diphosphate-induced blood platelet aggregation in platelet-rich plasma of humans; assay type: cell-based, human; details: for Inhibitory Activity on Blood Platelet Aggregation Human, relative to PGE1 taken as 1: relative to PGE1 = 1; for inhibitory activity on adenosine diphosphate-induced blood platelet aggregation, times as potent as PGE1: human platelet-rich plasma, vs PGE1

Row | Compound | diarrhoea-inducing (side-effect) activity compared with the known compounds (mice) | Diarrhoea-inducing Activity Mice (p.o.), relative to PGE1 taken as 1 (mice) | diarrhoea-inducing activity compared with PGE1 (mice) | Hypotensive Activity Dog (i.v.), relative to PGE1 taken as 1 (dogs) | useful activities (hypotensive, blood platelet aggregation inhibitory, vasodilator) (dogs) | hypotensive activity, times as potent as PGE1 (dogs) [times] | Inhibitory Activity on Blood Platelet Aggregation Rat, relative to PGE1 taken as 1 [1] | inhibitory activity on adenosine diphosphate-induced blood platelet aggregation, times as potent as PGE1 [1] [times] | Vasodilator Activity Rabbit, relative to PGE1 taken as 1 (isolated rabbit hearts) | coronary vasodilator activity, times as potent as PGE1 (isolated rabbit hearts) [times] | Hypotensive Activity Rat (p.o.), relative to PGE1 taken as 1 [2] | hypotensive activity, times as potent as PGE1 [2] [times] | LD50 ([3]; intravenous administration) [mg/kg] | LD50 ([3]; oral administration) [mg/kg] | Inhibitory Activity on Blood Platelet Aggregation Human, relative to PGE1 taken as 1 [4] | inhibitory activity on adenosine diphosphate-induced blood platelet aggregation, times as potent as PGE1 [4] [times]
1 | CCCC[C@H](C)C[C@H](O)/C=C/[C@H]1[C@H](O)CC(=O)[C@@H]1CCCC/C=C/C(=O)O [F, 9-oxo-11α,15α-dihydroxy-17S,20-dimethylprosta-trans-2,trans-13-dienoic acid] | weaker | < 1 | lower diarrhoea-inducing activity than PGE1 | 10.0 | extremely strong | 10 | 81.6 | 81.6 | 19.0 | 19.0 | 100 | 100 | ~12 | ~50 | 38.5 | 38.5
2 | CCCC[C@@H](C)[C@H](O)/C=C/[C@H]1[C@H](O)CC(=O)[C@@H]1CCCC/C=C/C(=O)O [A, 9-oxo-11α,15α-dihydroxy-16R-methylprosta-trans-2,trans-13-dienoic acid, reference compound] |  | 270.6 |  | 9.5 |  |  | 2.84 |  | 2-3 |  |  |  |  |  | 1.6 | 
3 | CCCC(CC)C[C@H](O)/C=C/[C@H]1[C@H](O)CC(=O)[C@@H]1CCCC/C=C/C(=O)O (stereo partly drawn) [B, 9-oxo-11α,15α-dihydroxy-17-ethylprosta-trans-2,trans-13-dienoic acid, reference compound] |  | < 1 |  | 1.5 |  |  | 14.5 |  | 1.0 |  | 10 |  |  |  | 22.1 | 
4 | CCCCCC(CC)C[C@H](O)/C=C/[C@H]1[C@H](O)CC(=O)[C@@H]1CCCC/C=C/C(=O)O (stereo partly drawn) [D, 9-oxo-11α,15α-dihydroxy-17,20-diethylprosta-trans-2,trans-13-dienoic acid, reference compound] |  | 3.2 |  | 1.45 |  |  | 1.4 |  | < 0.1 |  | 30-100 |  |  |  | 2.4 | 
5 | CCCC[C@H](C)C[C@H](O)/C=C/[C@H]1[C@H](O)CC(=O)[C@@H]1CCCC/C=C/C(=O)OC [H, methyl 9-oxo-11α,15α-dihydroxy-17S,20-dimethylprosta-trans-2,trans-13-dienoate] | weaker | < 1 | lower diarrhoea-inducing activity than PGE1 | 5.0 | extremely strong | 5 |  |  |  |  | 100 | 100 |  |  |  | 
6 | CCCC[C@@H](C)C[C@H](O)/C=C/[C@H]1[C@H](O)CC(=O)[C@@H]1CCCC/C=C/C(=O)O [G, 9-oxo-11α,15α-dihydroxy-17R,20-dimethylprosta-trans-2,trans-13-dienoic acid] | weaker | < 1 | lower diarrhoea-inducing activity than PGE1 | 3.5 | extremely strong | 3.5 | 70.5 | 70.5 | 14.0 | 14.0 |  |  |  |  | 48.1 | 48.1
7 | CCCCCC(CC)C[C@H](O)/C=C/[C@H]1[C@H](O)CC(=O)[C@@H]1CCCC/C=C/C(=O)OC (stereo partly drawn) [E, methyl 9-oxo-11α,15α-dihydroxy-17,20-diethylprosta-trans-2,trans-13-dienoate, reference compound] |  | 1.7 |  | 0.88 |  |  | 2.2 |  | 0.1 |  | 10 |  |  |  | 0.14 | 
8 | CC(c1ccccc1)[C@H](O)/C=C/[C@H]1[C@H](O)CC(=O)[C@@H]1CCCC/C=C/C(=O)O (stereo partly drawn) [C, 9-oxo-11α,15α-dihydroxy-16-phenyl-18,19,20-trinorprosta-trans-2,trans-13-dienoic acid, reference compound] |  | 11.9 |  | 39.0 |  |  |  |  | 0.3 |  |  |  |  |  |  | 
